According to patent US11377427B2, “Triazoles for regulating intracellular calcium homeostasis” (UNIVERSIDAD DEL PAIS VASCO, priority 2016, dated 2022):

Key:
[1] = test system: human control myotubes LHCN-M2; experiment: In vitro toxicity in human myotubes, CytoTox 96 colorimetric assay; type: cell-based; details: concentrations between 10 nM and 2 mM; 24 hours of incubation; FIG. 1
Method: These assays were carried out in human control myotubes LHCN-M2 after 14 days in differentiation medium. To determine the toxicity of the different analyzed compounds, particularly AHK1 and AHK2 according to the invention, these compounds were added to the culture medium for 24 hours at 37° C. at different concentrations (0-2 mM). For comparison purposes, the same assay was performed by adding reference compound S-107. Cell viability was determined by means of Cytotox 96 (Promega) colorimetric assay following instructions in the manual.

[2] = test system: fibers isolated from mouse flexor digitorum brevis muscle (dystrophic MDX fibers); experiment: Baseline intracellular calcium levels in mouse muscle fibers (Fura 2-AM); type: cell-based; details: 150 nM, overnight treatment; FIG. 2
Method: Fibers isolated from mouse flexor digitorum brevis muscle were cultured overnight in the presence or absence of compounds AHK1 and AHK2 at a concentration of 150 nM. Baseline intracellular calcium levels were evaluated by means of incubating the fibers with Fura 2-AM ratiometric fluorochrome (4 μM) and pluronic acid (0.02%) for 30 minutes at 37° C., in the culture medium. The fibers were viewed with a high-resolution digital camera and intracellular [Ca^2+] was estimated by means of a 340 nm/380 nm excitation ratio.

[3] = target: T1, RyR1-calstabin1 interaction (Homo sapiens, UniProt P21817+P62942); experiment: RyR1-calstabin1 interaction by in situ PLA in human myotubes under SIN1 nitro-oxidative stress; type: cell-based; details: pre-treated 12 hours at 150 nM; SIN1 5 mM 30 minutes; FIG. 3
T1 construct: endogenous in cells; host or cells: LHCN-M2 human myotubes (differentiated for 9 days)
T1 sequence (P21817 whole entry): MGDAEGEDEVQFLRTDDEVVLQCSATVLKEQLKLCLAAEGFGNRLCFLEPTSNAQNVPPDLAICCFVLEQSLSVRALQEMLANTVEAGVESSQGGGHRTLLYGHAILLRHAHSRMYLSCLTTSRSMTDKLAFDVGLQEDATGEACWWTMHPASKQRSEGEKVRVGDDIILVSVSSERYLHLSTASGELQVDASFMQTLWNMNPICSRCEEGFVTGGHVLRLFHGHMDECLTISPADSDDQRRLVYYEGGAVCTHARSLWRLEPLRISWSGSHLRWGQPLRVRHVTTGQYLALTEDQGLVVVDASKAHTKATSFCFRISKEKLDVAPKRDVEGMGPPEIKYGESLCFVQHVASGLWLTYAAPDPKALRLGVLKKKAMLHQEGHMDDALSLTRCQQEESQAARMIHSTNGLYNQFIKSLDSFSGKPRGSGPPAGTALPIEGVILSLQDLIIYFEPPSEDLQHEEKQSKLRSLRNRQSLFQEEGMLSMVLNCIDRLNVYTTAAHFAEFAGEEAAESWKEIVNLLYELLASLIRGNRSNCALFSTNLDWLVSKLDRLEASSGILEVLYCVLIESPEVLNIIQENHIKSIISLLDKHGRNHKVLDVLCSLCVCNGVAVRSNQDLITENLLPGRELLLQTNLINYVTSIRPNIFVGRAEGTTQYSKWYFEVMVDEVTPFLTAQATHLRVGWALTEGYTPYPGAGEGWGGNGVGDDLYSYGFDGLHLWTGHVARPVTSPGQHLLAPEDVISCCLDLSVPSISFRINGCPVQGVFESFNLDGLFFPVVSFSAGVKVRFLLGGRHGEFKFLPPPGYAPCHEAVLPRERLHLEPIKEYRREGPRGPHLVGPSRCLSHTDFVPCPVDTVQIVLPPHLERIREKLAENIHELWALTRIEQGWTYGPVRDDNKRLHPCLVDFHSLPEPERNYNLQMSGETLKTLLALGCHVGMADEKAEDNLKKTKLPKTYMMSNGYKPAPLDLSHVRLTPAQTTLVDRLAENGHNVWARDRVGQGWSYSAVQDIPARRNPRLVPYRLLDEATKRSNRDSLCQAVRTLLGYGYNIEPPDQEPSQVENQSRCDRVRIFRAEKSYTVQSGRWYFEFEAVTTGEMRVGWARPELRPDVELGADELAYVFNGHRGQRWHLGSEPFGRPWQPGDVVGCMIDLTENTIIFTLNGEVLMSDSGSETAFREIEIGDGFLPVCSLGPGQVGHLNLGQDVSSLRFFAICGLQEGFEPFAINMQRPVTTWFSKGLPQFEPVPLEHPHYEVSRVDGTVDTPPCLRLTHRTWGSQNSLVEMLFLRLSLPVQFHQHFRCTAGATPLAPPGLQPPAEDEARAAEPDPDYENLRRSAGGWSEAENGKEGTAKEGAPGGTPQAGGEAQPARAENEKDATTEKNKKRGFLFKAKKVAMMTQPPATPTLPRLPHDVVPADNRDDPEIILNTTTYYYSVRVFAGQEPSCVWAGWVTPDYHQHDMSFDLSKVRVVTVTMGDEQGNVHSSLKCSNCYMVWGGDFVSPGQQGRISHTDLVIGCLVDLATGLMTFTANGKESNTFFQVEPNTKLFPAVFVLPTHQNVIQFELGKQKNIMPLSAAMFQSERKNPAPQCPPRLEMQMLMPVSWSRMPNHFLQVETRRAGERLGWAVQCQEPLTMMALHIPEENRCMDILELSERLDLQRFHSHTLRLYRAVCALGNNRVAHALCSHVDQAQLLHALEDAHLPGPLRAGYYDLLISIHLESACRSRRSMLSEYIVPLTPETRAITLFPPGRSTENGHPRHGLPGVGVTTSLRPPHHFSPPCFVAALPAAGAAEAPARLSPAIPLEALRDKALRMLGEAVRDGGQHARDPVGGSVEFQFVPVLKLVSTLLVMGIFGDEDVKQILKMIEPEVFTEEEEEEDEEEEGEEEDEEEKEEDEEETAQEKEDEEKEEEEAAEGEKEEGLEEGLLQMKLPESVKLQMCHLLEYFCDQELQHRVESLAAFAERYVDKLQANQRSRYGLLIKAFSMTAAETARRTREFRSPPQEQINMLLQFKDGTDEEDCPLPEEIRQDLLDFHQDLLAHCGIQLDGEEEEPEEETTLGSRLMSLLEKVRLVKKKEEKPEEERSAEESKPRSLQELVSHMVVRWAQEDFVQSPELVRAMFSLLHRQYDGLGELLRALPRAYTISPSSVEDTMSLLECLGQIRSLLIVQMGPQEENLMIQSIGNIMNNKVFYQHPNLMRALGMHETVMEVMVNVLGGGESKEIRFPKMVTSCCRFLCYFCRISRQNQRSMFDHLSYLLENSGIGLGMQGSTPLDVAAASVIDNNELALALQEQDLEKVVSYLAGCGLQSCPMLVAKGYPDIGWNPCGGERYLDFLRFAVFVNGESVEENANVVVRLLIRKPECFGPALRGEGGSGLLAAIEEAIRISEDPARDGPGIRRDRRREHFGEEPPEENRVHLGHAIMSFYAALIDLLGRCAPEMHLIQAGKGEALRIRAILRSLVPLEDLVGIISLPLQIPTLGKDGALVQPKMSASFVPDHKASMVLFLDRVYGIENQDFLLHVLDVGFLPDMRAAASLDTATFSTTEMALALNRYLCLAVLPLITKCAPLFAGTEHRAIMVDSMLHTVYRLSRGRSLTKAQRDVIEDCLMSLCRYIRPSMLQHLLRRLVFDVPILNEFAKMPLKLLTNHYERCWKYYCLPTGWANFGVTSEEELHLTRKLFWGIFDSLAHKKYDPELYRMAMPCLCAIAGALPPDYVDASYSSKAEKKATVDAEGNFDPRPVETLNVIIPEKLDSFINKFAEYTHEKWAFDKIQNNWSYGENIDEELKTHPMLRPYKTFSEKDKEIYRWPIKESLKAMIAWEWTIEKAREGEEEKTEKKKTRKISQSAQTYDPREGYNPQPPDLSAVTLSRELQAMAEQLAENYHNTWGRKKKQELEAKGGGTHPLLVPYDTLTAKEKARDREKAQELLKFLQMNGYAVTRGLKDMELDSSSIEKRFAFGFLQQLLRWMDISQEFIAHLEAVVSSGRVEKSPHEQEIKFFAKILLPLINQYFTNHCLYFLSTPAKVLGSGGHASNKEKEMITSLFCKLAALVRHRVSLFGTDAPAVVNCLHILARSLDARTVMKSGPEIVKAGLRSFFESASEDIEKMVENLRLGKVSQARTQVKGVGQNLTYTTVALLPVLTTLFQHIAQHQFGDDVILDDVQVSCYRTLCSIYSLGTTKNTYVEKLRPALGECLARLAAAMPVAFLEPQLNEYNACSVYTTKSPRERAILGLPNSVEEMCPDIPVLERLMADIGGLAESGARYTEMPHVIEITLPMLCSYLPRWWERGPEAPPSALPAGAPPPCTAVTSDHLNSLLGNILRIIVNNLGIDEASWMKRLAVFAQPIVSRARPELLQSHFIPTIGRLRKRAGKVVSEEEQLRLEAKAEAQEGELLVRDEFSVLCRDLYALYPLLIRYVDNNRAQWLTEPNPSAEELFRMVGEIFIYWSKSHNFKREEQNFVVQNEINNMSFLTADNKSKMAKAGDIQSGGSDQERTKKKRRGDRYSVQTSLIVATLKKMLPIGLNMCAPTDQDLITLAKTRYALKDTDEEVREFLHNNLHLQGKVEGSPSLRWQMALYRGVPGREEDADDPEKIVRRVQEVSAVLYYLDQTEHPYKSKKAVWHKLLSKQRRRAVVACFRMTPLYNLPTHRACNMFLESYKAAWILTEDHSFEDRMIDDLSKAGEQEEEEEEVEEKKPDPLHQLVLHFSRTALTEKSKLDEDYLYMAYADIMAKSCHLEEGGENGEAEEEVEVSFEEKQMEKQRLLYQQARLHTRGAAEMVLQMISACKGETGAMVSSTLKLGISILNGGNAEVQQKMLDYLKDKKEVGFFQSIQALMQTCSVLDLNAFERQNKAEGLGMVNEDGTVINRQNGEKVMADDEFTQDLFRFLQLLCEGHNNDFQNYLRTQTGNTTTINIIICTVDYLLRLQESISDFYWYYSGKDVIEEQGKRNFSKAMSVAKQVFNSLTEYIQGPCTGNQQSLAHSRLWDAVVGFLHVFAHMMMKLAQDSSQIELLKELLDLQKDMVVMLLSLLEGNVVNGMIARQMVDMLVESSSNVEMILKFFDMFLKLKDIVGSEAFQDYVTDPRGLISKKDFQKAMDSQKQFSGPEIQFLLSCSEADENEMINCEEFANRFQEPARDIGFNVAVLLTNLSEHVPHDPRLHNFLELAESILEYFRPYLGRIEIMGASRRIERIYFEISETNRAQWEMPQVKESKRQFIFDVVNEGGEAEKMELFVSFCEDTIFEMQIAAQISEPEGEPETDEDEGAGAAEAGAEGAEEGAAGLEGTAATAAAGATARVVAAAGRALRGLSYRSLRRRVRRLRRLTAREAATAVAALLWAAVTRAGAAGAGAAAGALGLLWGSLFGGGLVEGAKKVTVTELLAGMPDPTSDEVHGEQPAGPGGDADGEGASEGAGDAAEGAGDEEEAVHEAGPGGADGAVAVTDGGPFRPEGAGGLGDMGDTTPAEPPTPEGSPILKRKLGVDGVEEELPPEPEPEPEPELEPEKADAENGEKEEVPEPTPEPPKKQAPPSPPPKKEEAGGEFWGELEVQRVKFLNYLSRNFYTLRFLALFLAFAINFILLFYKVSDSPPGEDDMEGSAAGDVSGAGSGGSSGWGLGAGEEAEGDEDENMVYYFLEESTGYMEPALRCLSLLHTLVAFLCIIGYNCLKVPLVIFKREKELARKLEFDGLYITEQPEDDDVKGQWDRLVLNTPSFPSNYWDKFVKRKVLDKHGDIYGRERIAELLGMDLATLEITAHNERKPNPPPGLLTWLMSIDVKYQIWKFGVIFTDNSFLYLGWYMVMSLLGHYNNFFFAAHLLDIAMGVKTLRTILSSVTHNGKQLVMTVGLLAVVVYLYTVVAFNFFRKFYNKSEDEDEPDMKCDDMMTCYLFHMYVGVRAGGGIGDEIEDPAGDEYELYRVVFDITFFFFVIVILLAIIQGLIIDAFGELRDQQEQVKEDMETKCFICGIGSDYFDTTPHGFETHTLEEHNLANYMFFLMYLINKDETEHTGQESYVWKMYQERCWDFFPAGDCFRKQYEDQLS
T1 sequence (P62942 2-108 limits assumed): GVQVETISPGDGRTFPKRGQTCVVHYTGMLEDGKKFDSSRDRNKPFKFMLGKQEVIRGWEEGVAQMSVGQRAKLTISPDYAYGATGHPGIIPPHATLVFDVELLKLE
Method: This assay was carried out in human control myotubes LHCN-M2 after 9 days in differentiation medium. Said myotubes were pre-treated for 12 hours with compounds AHK1 and AHK2 at a concentration of 150 nM. After treatment, the myotubes were subjected to peroxynitrite-induced nitro-oxidative stress by means of the addition of SIN1 (5 mM) for 30 minutes. RyR1-calstabin colocalization was analyzed by means of the in situ proximity ligation technique (in situ PLA) for which Sigma's Duolink II Network Fluorescence Kit and RyR1- and calstabin 1-specific antibodies were used. This technique allows detecting the exact location of two antigens located at a distance less than 40 nm from one another. To determine RyR1-calstabin-1 colocalization, 3 photographs were quantified for each condition with about 9 myotubes per field, using Image J computer software (http://rsb.info.nih.gov/ij/download.html). The colocalization area in each image was normalized to the myosin expression area, which was determined by means of immunofluorescence with a fluorescein-conjugated specific antibody.

mdx mice [4] = experiment: Grip strength of dystrophic mdx mice; type: in vivo, mouse; details: 0.25 mg/mL in drinking water, one-month old mdx mice
Method: One-month old male dystrophic mdx mice supplied by Jackson Laboratory (https://www.jax.org/strain/001801) were used. The biological assays for measuring the effect of the Ahulken (AHK) compounds on muscle function were performed with one-month old mice, whereas the in vivo assays for determining the effect on the heart and CNS were performed with four-month old mice. The one-month old mice were treated with compound AHK1 or compound AHK2 for 5 weeks, where said compounds were administered in drinking water at a concentration of 0.25 mg/mL. The muscle strength of the front paws was measured every week using a grip strength meter and the obtained value was normalized by the body weight of the animal. To that end, the indications described in the TREAT-NMD Neuromuscular Network protocol (http://www.treat-nmd.eu/downloads/file/sops/dmd/MDX/DMD_M.2.2.001.pdf) were followed.

mdx mice [5] = experiment: Muscle degeneration/regeneration: percentage of central nuclei in muscle cryosections of mdx mice; type: in vivo, mouse; details: 5-week treatment of mdx mice; 0.25 mg/mL in drinking water; FIG. 5
Method: After concluding the 5-week treatment, the tibialis anterior muscle was obtained and processed for subsequent biochemical and immunohistological analysis to determine the degree of muscle damage. Cell-death derived regeneration was determined in muscle cryosections by means of quantifying the percentage of central nuclei using standard immunofluorescence techniques for detecting collagen IV and cell nuclei.

[6] = test system: tibialis anterior muscle of mdx mice; experiment: Gene expression pattern of tibialis anterior muscle of mdx mice (RT Profiler PCR Array); type: in vivo, mouse
Method: In turn, the biochemical analysis of the tibialis anterior muscle was performed by means of RNA extraction and expression pattern analysis in control mice, mdx mice and mice subjected to different treatments. To that end, the […] skeletal muscle, myogenesis and myopathy RT Profiler PCR Array (PAHS-099Z, QIAGEN) was used, using cDNA mixtures of at least 3 mice per group. The expression profile of 84 genes involved in physiopathological mechanisms of the skeletal muscle was thus analyzed. The experiments were conducted in 7300 Real-Time PCR equipment (Applied Biosystems) and the results obtained were analyzed using QIAGEN online software (http://www.sabiosciences.com/dataanalysis.php).

SMILES: COc1cccc(SCc2cn(CC(=O)O)nn2)c1 [AHK1, 1-carboxymethyl-4-[3-(methoxy)phenylthiomethyl]-1H-1,2,3-triazole]
- in vitro acute toxicity against human myotubes [1]: do not show in vitro acute toxicity
- intracellular calcium levels at rest in MDX fibers [2]: brought intracellular calcium levels back to the control levels
- dissociation of the RyR1-Calst1 complex in the presence of SIN1 [3]: partially prevented
- grip strength compared to untreated littermates (mdx mice [4]; after 2 weeks of treatment): increased significantly
- increase of muscle strength (mdx mice [4]; after 5 weeks of treatment, FIG. 4): 20%
- percentage of central nuclei (mdx mice [5]): significantly reduced
- Ratio of change vs. control, Akt1 ([6]; gene Akt1, MDX + AHK1, 5 weeks, tibialis anterior, untreated MDX 2.63): 1.42
- Ratio of change vs. control, Bcl2 ([6]; gene Bcl2, MDX + AHK1, 5 weeks, tibialis anterior, untreated MDX 1.94): 1.05
- Ratio of change vs. control, Bmp4 ([6]; gene Bmp4, MDX + AHK1, 5 weeks, tibialis anterior, untreated MDX 1.93): 2.08
- Ratio of change vs. control, Capn2 ([6]; gene Capn2, MDX + AHK1, 5 weeks, tibialis anterior, untreated MDX 2.90): 1.75
- Ratio of change vs. control, Casp3 ([6]; gene Casp3, MDX + AHK1, 5 weeks, tibialis anterior, untreated MDX 10.28): 5.27
- Ratio of change vs. control, Cast ([6]; gene Cast, MDX + AHK1, 5 weeks, tibialis anterior, untreated MDX 1.86): 1.49
- Ratio of change vs. control, Cav3 ([6]; gene Cav3, MDX + AHK1, 5 weeks, tibialis anterior, untreated MDX 3.28): 1.68
- Ratio of change vs. control, Cryab ([6]; gene Cryab, MDX + AHK1, 5 weeks, tibialis anterior, untreated MDX 3.08): 1.50
- Ratio of change vs. control, Ctnnb1 ([6]; gene Ctnnb1, MDX + AHK1, 5 weeks, tibialis anterior, untreated MDX 1.79): 1.27
- Ratio of change vs. control, Dag1 ([6]; gene Dag1, MDX + AHK1, 5 weeks, tibialis anterior, untreated MDX 2.27): 1.23
- Ratio of change vs. control, Des ([6]; gene Des, MDX + AHK1, 5 weeks, tibialis anterior, untreated MDX 2.14): 1.53
- Ratio of change vs. control, Dysf ([6]; gene Dysf, MDX + AHK1, 5 weeks, tibialis anterior, untreated MDX 2.15): 1.28
- Ratio of change vs. control, Foxo3 ([6]; gene Foxo3, MDX + AHK1, 5 weeks, tibialis anterior, untreated MDX 1.76): 1.14
- Ratio of change vs. control, Igf1 ([6]; gene Igf1, MDX + AHK1, 5 weeks, tibialis anterior, untreated MDX 2.87): 2.07
- Ratio of change vs. control, Igf2 ([6]; gene Igf2, MDX + AHK1, 5 weeks, tibialis anterior, untreated MDX 22.31): 9.78
- Ratio of change vs. control, Igfbp3 ([6]; gene Igfbp3, MDX + AHK1, 5 weeks, tibialis anterior, untreated MDX 1.77): 1.34
- Ratio of change vs. control, Igfbp5 ([6]; gene Igfbp5, MDX + AHK1, 5 weeks, tibialis anterior, untreated MDX 2.52): 1.43
- Ratio of change vs. control, Ikbkb ([6]; gene Ikbkb, MDX + AHK1, 5 weeks, tibialis anterior, untreated MDX 2.72): 1.62
- Ratio of change vs. control, Il1b ([6]; gene Il1b, MDX + AHK1, 5 weeks, tibialis anterior, untreated MDX 17.77): 2.82
- Ratio of change vs. control, Il6 ([6]; gene Il6, MDX + AHK1, 5 weeks, tibialis anterior, untreated MDX 32.72): 9.76
- Ratio of change vs. control, Lmna ([6]; gene Lmna, MDX + AHK1, 5 weeks, tibialis anterior, untreated MDX 5.29): 2.52
- Ratio of change vs. control, Mapk3 ([6]; gene Mapk3, MDX + AHK1, 5 weeks, tibialis anterior, untreated MDX 2.61): 1.69
- Ratio of change vs. control, Mmp9 ([6]; gene Mmp9, MDX + AHK1, 5 weeks, tibialis anterior, untreated MDX 4.51): 2.01
- Ratio of change vs. control, Musk ([6]; gene Musk, MDX + AHK1, 5 weeks, tibialis anterior, untreated MDX 3.51): 2.00
- Ratio of change vs. control, Myf5 ([6]; gene Myf5, MDX + AHK1, 5 weeks, tibialis anterior, untreated MDX 3.40): 2.13
- Ratio of change vs. control, Myod1 ([6]; gene Myod1, MDX + AHK1, 5 weeks, tibialis anterior, untreated MDX 4.27): 1.28
- Ratio of change vs. control, Myog ([6]; gene Myog, MDX + AHK1, 5 weeks, tibialis anterior, untreated MDX 17.36): 3.24
- Ratio of change vs. control, Nfkb1 ([6]; gene Nfkb1, MDX + AHK1, 5 weeks, tibialis anterior, untreated MDX 2.45): 1.67
- Ratio of change vs. control, Pax3 ([6]; gene Pax3, MDX + AHK1, 5 weeks, tibialis anterior, untreated MDX 2.16): 2.48
- Ratio of change vs. control, Pax7 ([6]; gene Pax7, MDX + AHK1, 5 weeks, tibialis anterior, untreated MDX 3.82): 2.55
- Ratio of change vs. control, Ppargc1b ([6]; gene Ppargc1b, MDX + AHK1, 5 weeks, tibialis anterior, untreated MDX 1.77): 1.23
- Ratio of change vs. control, Prkaa1 ([6]; gene Prkaa1, MDX + AHK1, 5 weeks, tibialis anterior, untreated MDX 2.33): 1.55
- Ratio of change vs. control, Prkag3 ([6]; gene Prkag3, MDX + AHK1, 5 weeks, tibialis anterior, untreated MDX 2.52): 2.68
- Ratio of change vs. control, Rhoa ([6]; gene Rhoa, MDX + AHK1, 5 weeks, tibialis anterior, untreated MDX 2.30): 1.80
- Ratio of change vs. control, Rps6kb1 ([6]; gene Rps6kb1, MDX + AHK1, 5 weeks, tibialis anterior, untreated MDX 1.77): 1.25
- Ratio of change vs. control, Tgfb1 ([6]; gene Tgfb1, MDX + AHK1, 5 weeks, tibialis anterior, untreated MDX 6.51): 3.61
- Ratio of change vs. control, Tnf ([6]; gene Tnf, MDX + AHK1, 5 weeks, tibialis anterior, untreated MDX 15.01): 10.27
- Ratio of change vs. control, Tnnc1 ([6]; gene Tnnc1, MDX + AHK1, 5 weeks, tibialis anterior, untreated MDX 25.00): 4.53
- Ratio of change vs. control, Tnnt1 ([6]; gene Tnnt1, MDX + AHK1, 5 weeks, tibialis anterior, untreated MDX 12.09): 3.37
- Ratio of change vs. control, Utrn ([6]; gene Utrn, MDX + AHK1, 5 weeks, tibialis anterior, untreated MDX 2.03): 1.35
- number of genes the expression of which was increased with respect to control (at least 1.75-fold) ([6]; mdx mice treated 5 weeks, 84 genes analyzed, 40 in untreated mdx): 20
